Consider one substance from patent publication US9157904B2, “Wnt antagonists and methods of treatment and screening” (OncoMed Pharmaceuticals, Inc., priority 2010, dated 2015).

Type in all cases: in vivo, NOD/SCID mice
The test system of one assay is PN4 pancreas tumor. The experiment in a line: PN4 pancreas tumor xenograft, tumor growth. The conditions noted are these: FZD8-Fc 15 mg/kg i.p. twice weekly, vs control antibody. The procedure: The anti-tumor activity of FZD8-Fc (54F03) was evaluated in the PN4 pancreas tumor xenograft model. Dissociated OMP-PN4 cells (50,000 per animal) were injected subcutaneously into 6-8 week old male NOD/SCID mice. Tumor growth was monitored weekly and tumor measurements were initiated once tumors were palpable. On day 50, mice with average tumor volumes of 137 mm^3 were randomized into 4 groups of 10 animals each. Animals were injected with either control antibody, FZD8-Fc (15 mg/kg), gemcitabine (2 mg/kg) or a combination of FZD8-Fc and gemcitabine. Administration of the FZD8-Fc and gemcitabine was performed via injection into the intra-peritoneal cavity, once weekly (gemcitabine) or twice weekly (FZD8-Fc). Tumors were measured twice a week and tumor volume was determined using the formula ½(a×b^2); where a=length, and b=breadth. Data are expressed as mean and mean±S.E.M. Group means were compared using Student's two-tailed, unpaired t test.

For a further assay, the system named is PN13 tumors. The experiment in a line: CK20 immunohistochemistry of treated PN13 tumors. The conditions noted are these: vs control antibody. On the procedure:
The cell differentiation capability of FZD8-Fc was also evaluated in the OMP-PN13 pancreas tumor xenograft model. Dissociated OMP-PN13 cells (50,000 per animal) were injected subcutaneously into 6-8 week old male NOD/SCID mice. Tumor growth was monitored weekly and tumor measurements were initiated once tumors were palpable. On day 40 mice with average tumor volume of 114 mm^3 were randomized into 4 groups of 10 animals each. Animals were injected with either control antibody or FZD8-Fc (15 mg/kg). Administration of the FZD8-Fc and control antibody was performed via injection into the intraperitoneal cavity, twice weekly. After 19 days of treatment, the tumors were excised and immunohistochemistry analysis was performed using standard techniques. Briefly, tumors were fixed in formalin, embedded in paraffin, and tumor sections of 4 μm thickness were cut. After deparaffinization and hydration, the tumor sections were subjected to an antigen retrieval process in Tris buffer (pH 9.5). Sections were incubated with hydrogen peroxide (Sigma-Aldrich, St Louis, Mo.) for 10 minutes to block endogenous peroxidases. […]
Tumor sections were obtained and treated as described above. […] The bound antibody was detected using the immunohistochemistry protocol described above.

The next assay concerns PE13 breast tumor. Put plainly: PE13 breast tumor xenograft, tumor growth. The conditions noted are these: FZD8-Fc 5 mg/kg i.p. twice a week, single agent. On the procedure:
Dissociated PE13 breast tumor cells (50,000 per animal) were injected subcutaneously into the mammary fat pads of NOD/SCID mice. Mice were monitored weekly and tumors were allowed to grow until they were approximately 106 mm^3. On day 27 post cell injection the mice were randomized into four treatment groups (n=10 mice/group) and treated with control antibody, FZD8-Fc (54F03), taxol or a combination of FZD8-Fc and taxol. Taxol was administered intraperitoneally at a dose of 7.5 mg/kg once a week and FZD8-Fc was administered intraperitoneally at a dose of 5 mg/kg twice a week.

The test system of another assay is PN4 tumors. The experiment in a line: FACS for ESA, CD44 and CD201 on PN4 tumors treated with variants. The conditions noted are these: vs control antibody. The procedure: Pancreatic tumor cells from the tumor-bearing mice described above were harvested and minced into approximately 1 mm^3 fragments, followed by enzymatic digestion at 1 gram per 10 ml of 300 μg/ml collagenase and 200 U/ml DNase I for 2 hours at 37° C./5% CO2 with intermittent mixing with a 10 ml pipet to disperse cells. Digestion was stopped by adding an equal volume of FACS buffer (1× Hanks Buffered Saline Solution (HBSS), 2% heat-inactivated Fetal Calf Serum (FCS) and 2 mM HEPES pH 7.4). Cells were filtered through 40 μm nylon filters and collected by centrifugation at 150×g for 5 minutes. Red blood cells were lysed in a hypotonic buffer containing ammonium chloride for 2 minutes on ice, and the cells were washed again with excess FACS buffer, and resuspended with FACS buffer at 1×10^7 cells/ml.
The freshly prepared single cell suspensions were stained for 20 minutes on ice with biotinylated anti-mouse H-2Kd (clone SF1-1.1, Biolegend, San Diego, Calif.) at 5 μg/ml, biotinylated anti-mouse CD45 (30-F11, Biolegend) at […], and streptavidin-PerCP-Cy5.5 (eBioscience, San Diego, Calif.) at 1:200 dilution. Unbound antibody was removed by washing twice with 10 volume of FACS buffer. […]

Take “54F03: Fri domain of human FZD8 fused to human IgG1 Fc with GRA linker; SEQ ID NO:1”: the “reduction in tumor growth” value in the assay with PN4 pancreas tumor is recorded as 66%. For the same substance, in the assay with PN13 tumors, the “cells expressing CK20” value is on record as “increase in cells expressing CK20”. For the same substance, the “reduction of tumor growth relative to control antibody” value in the assay with PE13 breast tumor came out at 20%. In the assay on PN4 tumors, the “percentage of CD44^hi cells” value is “decreased the percentage of CD44^hi cells” and the “percentage of CD201^+CD44^+ cells” value is on record as “decreased the percentage of CD201^+CD44^+ cells”.
